Laboratory results reported in US9884866B2, “Immunomodulators and immunomodulator conjugates” (REGENTS OF THE UNIVERSITY OF MINNESOTA, priority 2014, dated 2018).

System: Bone marrow derived dendritic cells (BMDC)
Test: Measurement of proinflammatory cytokines with cytometric bead assay in BMDC
Format: cell-based, C57BL/6 mice
Conditions: BMDC stimulated with 30 μM of compound for 3 days; supernatant
Method: Measurement of Proimflammatory Cytokines with Cytometric Bead Assay:
Bone marrow derived dendritic cells (BMDC) were generated by isolating a single cell suspension of marrow from the femur of C57BL/6 mice (6-8 weeks of age). Red blood cells were lysed with 0.83% NH4Cl, 0.1% KHCO3 and […] cells were seeded in each of well of a 6 well plate in complete RPMI media (Invitrogen, Grand Island, N.Y.), supplemented with mouse 20 ng/ml Granulocyte-Macrophage Colony Stimulating Factor (PeproTech, Rocky Hill, N.J.). After 6 days after culture, BMDC were stimulated with 30 μM of compound for 3 days. 25 μL of supernatant was then removed and assayed for TNFα, IL-12p40, IL-1β and IL-10 using a flow cytometric bead array according to the manufacturers' instructions (BD Bioscience, San Jose, Calif.). Controls were performed using the addition of media and carrier with no drug. Flow cytometry was performed on a FACS canto-II (BD Bioscience) and data were analyzed using Flowjo software (Tree Star, Inc. Ashland, Oreg.).

CCCCc1nc2c(N)nc3cc(S(=O)(=O)c4ccccc4)ccc3c2n1CC(C)O (centres unmarked) [Compound 548, 4-amino-2-butyl-1-(2-hydroxypropyl)-7-benzenesulphonyl-1H-imidazo[4,5-c]quinoline]
IL-1b: 19 ± 2 pg/mL | IL-10: 29 ± 2 pg/mL | IL-12/23p40: 176 ± 25 pg/mL | TNF: 1456 ± 111 pg/mL

CCCCc1nc2c(N)nc3cc(NS(=O)(=O)c4ccccc4)ccc3c2n1CC(C)O (centres unmarked) [Compound 543]
IL-1b: 128 ± 13 pg/mL | IL-10: 151 ± 24 pg/mL | IL-12/23p40: 57 ± 8 pg/mL | TNF: 725 ± 77 pg/mL
